Data: PubChem BioAssay AID588666 (The Scripps Research Institute Molecular Screening Center, 2011)
The source made the active and inactive calls.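 How the source made its calls: active means MAPK1 protein level shifted by at least 30% from DMSO-treated cells, either down or up; inactive means shift under 30% either way.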

Target: Mitogen-activated protein kinase 1 (Homo sapiens) (UniProt P28482)
Assay: reduction of total ERK1/2 protein levels, late-stage follow-up, counter-screen for KLF5 inhibitor project, SW620 cells, chemiluminescent western blot, powder samples (AID 588666)
Settings: ERK1/2 western blot, 24 h, at 10 µM; for inhibition: stronger effect = higher value; for fold change: measured here: ERK1/2 protein fold change vs DMSO, stronger effect = lower value

Mitogen-activated protein kinase 1 (Homo sapiens), sequence (P28482 whole entry, looked up): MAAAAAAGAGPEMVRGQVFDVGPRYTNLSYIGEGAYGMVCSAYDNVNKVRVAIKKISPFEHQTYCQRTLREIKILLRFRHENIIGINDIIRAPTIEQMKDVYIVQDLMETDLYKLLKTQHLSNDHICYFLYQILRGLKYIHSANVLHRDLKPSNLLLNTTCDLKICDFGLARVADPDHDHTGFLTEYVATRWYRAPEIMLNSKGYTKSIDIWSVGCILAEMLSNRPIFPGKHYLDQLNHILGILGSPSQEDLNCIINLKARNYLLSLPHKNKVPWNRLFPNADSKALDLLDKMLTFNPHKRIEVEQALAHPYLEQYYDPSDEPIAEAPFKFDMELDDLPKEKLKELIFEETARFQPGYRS

inhibition	SMILES	fold change
26.9% (inactive)	CN(C(=O)CNC(=O)/C=C/c1cccc(Cl)c1)C1CCS(=O)(=O)C1 (stereo unspecified)	-1.37
14.8% (inactive)	CN(C(=O)COC(=O)/C=C/c1cccc([N+](=O)[O-])c1)C1CCS(=O)(=O)C1 (stereo unspecified)	-1.17
-9.9% (inactive)	CN(C(=O)CNC(=O)/C=C/c1cccc(Cl)c1)C1CCS(=O)(=O)CC1	1.1
